Key:
[1] = in vivo; cited from earlier work
brain = conditions: at plasma concentration 150 µM; cited from earlier work
Notum [2] = molecular target: T1, Notum (Homo sapiens, UniProt Q6P988, C330S); test: Thermal shift assay (SYPRO Orange) of Notum; conditions: for Thermoflour melting curve fluorescence of Notum: Fig 2c
T1 sequence (Q6P988 81-451 C330S): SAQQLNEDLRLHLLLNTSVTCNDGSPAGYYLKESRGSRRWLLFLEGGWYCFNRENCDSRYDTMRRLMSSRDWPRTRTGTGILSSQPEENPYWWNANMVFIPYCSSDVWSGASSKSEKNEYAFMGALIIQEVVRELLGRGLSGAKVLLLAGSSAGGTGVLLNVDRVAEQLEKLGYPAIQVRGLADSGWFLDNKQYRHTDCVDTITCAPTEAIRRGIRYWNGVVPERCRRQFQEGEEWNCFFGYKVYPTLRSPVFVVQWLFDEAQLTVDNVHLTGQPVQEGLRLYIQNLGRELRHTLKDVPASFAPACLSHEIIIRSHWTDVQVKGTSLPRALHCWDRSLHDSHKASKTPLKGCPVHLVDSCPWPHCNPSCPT
Experimental: Reference wells, i.e. solutions without compounds were used to compare the melting temperature (Tm). The experiments were performed in triplicate.

Notum [3] = molecular target: T1, Notum; test: SPR equilibrium binding to biotinylated Notum on streptavidin chip; design: The human Notum enzyme core comprising amino acids S81–T451 with a C330S mutation; made in house; dialyzed conditioned medium used without purification; conditions: Fig 2a
adenosine receptors = conditions: through the adenosine receptors; cited from earlier work

In the case of Cn1c(=O)c2c(ncn2C)n(C)c1=O [caffeine, 1,3,7-trimethylxanthine], the “Plasma concentration at therapeutic use” value [1] is given as at most 150 µM, the “Adverse effects on the brain” value (brain) is given as “does not appear to have adverse effects on the brain” and the “Melting temperature (Tm) of Notum” value (Notum [2]) is given as 66.4 °C. For the same molecule, the “Concentration from which the Tm of Notum starts to increase” value (Notum [2]; 2-fold dilution series 1-1000 µM, dose-dependent) was 32 µM, the “Thermoflour melting curve fluorescence of Notum” value (Notum [2]; compound 500 µM, Temperature 24.5) was 709.927 and the “Thermoflour melting curve fluorescence of Notum” value (Notum [2]; compound 500 µM, Temperature 25.5) was 611.276. For the same molecule, the “Thermoflour melting curve fluorescence of Notum” value (Notum [2]; compound 500 µM, Temperature 26.5) was 506.395, the “Thermoflour melting curve fluorescence of Notum” value (Notum [2]; compound 500 µM, Temperature 27.5) was 407.771 and the “Thermoflour melting curve fluorescence of Notum” value (Notum [2]; compound 500 µM, Temperature 28.5) was 329.046. For the same molecule, the “Thermoflour melting curve fluorescence of Notum” value (Notum [2]; compound 500 µM, Temperature 29.5) was 252.252, the “Thermoflour melting curve fluorescence of Notum” value (Notum [2]; compound 500 µM, Temperature 30.5) was 185.878 and the “Thermoflour melting curve fluorescence of Notum” value (Notum [2]; compound 500 µM, Temperature 31.5) was 116.312. The “Thermoflour melting curve fluorescence of Notum” value (Notum [2]; compound 500 µM, Temperature 32.5) was 36.8288, the “Thermoflour melting curve fluorescence of Notum” value (Notum [2]; compound 500 µM, Temperature 33.5) was -33.9223 and the “Thermoflour melting curve fluorescence of Notum” value (Notum [2]; compound 500 µM, Temperature 34.5) was -98.3184. For the same molecule, the “Thermoflour melting curve fluorescence of Notum” value (Notum [2]; compound 500 µM, Temperature 35.5) was -160.078, the “Thermoflour melting curve fluorescence of Notum” value (Notum [2]; compound 500 µM, Temperature 36.5) was -227.439 and the “Thermoflour melting curve fluorescence of Notum” value (Notum [2]; compound 500 µM, Temperature 37.5) was -299.113. The “Thermoflour melting curve fluorescence of Notum” value (Notum [2]; compound 500 µM, Temperature 38.5) was -356.595, the “Thermoflour melting curve fluorescence of Notum” value (Notum [2]; compound 500 µM, Temperature 39.5) was -384.234 and the “Thermoflour melting curve fluorescence of Notum” value (Notum [2]; compound 500 µM, Temperature 40.5) was -401.667. For the same molecule, the “Thermoflour melting curve fluorescence of Notum” value (Notum [2]; compound 500 µM, Temperature 41.5) was -422.587, the “Thermoflour melting curve fluorescence of Notum” value (Notum [2]; compound 500 µM, Temperature 42.5) was -436.447 and the “Thermoflour melting curve fluorescence of Notum” value (Notum [2]; compound 500 µM, Temperature 43.5) was -433.953. The “Thermoflour melting curve fluorescence of Notum” value (Notum [2]; compound 500 µM, Temperature 44.5) was -407.23, the “Thermoflour melting curve fluorescence of Notum” value (Notum [2]; compound 500 µM, Temperature 45.5) was -370.506 and the “Thermoflour melting curve fluorescence of Notum” value (Notum [2]; compound 500 µM, Temperature 46.5) was -329.743. The “Thermoflour melting curve fluorescence of Notum” value (Notum [2]; compound 500 µM, Temperature 47.5) was -279.561, the “Thermoflour melting curve fluorescence of Notum” value (Notum [2]; compound 500 µM, Temperature 48.5) was -224.386 and the “Thermoflour melting curve fluorescence of Notum” value (Notum [2]; compound 500 µM, Temperature 49.5) was -154.955. For the same molecule, the “Thermoflour melting curve fluorescence of Notum” value (Notum [2]; compound 500 µM, Temperature 50.5) was -68.5872, the “Thermoflour melting curve fluorescence of Notum” value (Notum [2]; compound 500 µM, Temperature 51.5) was 21.0565 and the “Thermoflour melting curve fluorescence of Notum” value (Notum [2]; compound 500 µM, Temperature 52.5) was 104.977. For the same molecule, the “Thermoflour melting curve fluorescence of Notum” value (Notum [2]; compound 500 µM, Temperature 53.5) was 203.138, the “Thermoflour melting curve fluorescence of Notum” value (Notum [2]; compound 500 µM, Temperature 54.5) was 335.417 and the “Thermoflour melting curve fluorescence of Notum” value (Notum [2]; compound 500 µM, Temperature 55.5) was 489.845. For the same molecule, the “Thermoflour melting curve fluorescence of Notum” value (Notum [2]; compound 500 µM, Temperature 56.5) was 650.176, the “Thermoflour melting curve fluorescence of Notum” value (Notum [2]; compound 500 µM, Temperature 57.5) was 838.955 and the “Thermoflour melting curve fluorescence of Notum” value (Notum [2]; compound 500 µM, Temperature 58.5) was 1115.22. For the same molecule, the “Thermoflour melting curve fluorescence of Notum” value (Notum [2]; compound 500 µM, Temperature 59.5) was 1497.71, the “Thermoflour melting curve fluorescence of Notum” value (Notum [2]; compound 500 µM, Temperature 60.5) was 2046.51 and the “Thermoflour melting curve fluorescence of Notum” value (Notum [2]; compound 500 µM, Temperature 61.5) was 2842.67. For the same molecule, the “Thermoflour melting curve fluorescence of Notum” value (Notum [2]; compound 500 µM, Temperature 62.5) was 4016.35, the “Thermoflour melting curve fluorescence of Notum” value (Notum [2]; compound 500 µM, Temperature 63.5) was 5616.14 and the “Thermoflour melting curve fluorescence of Notum” value (Notum [2]; compound 500 µM, Temperature 64.5) was 7625.37. The “Thermoflour melting curve fluorescence of Notum” value (Notum [2]; compound 500 µM, Temperature 65.5) was 9844.37, the “Thermoflour melting curve fluorescence of Notum” value (Notum [2]; compound 500 µM, Temperature 66.5) was 11980.7 and the “Thermoflour melting curve fluorescence of Notum” value (Notum [2]; compound 500 µM, Temperature 67.5) was 13878. The “Thermoflour melting curve fluorescence of Notum” value (Notum [2]; compound 500 µM, Temperature 68.5) was 15429.9, the “Thermoflour melting curve fluorescence of Notum” value (Notum [2]; compound 500 µM, Temperature 69.5) was 16655.6 and the “Thermoflour melting curve fluorescence of Notum” value (Notum [2]; compound 500 µM, Temperature 70.5) was 17623.3. The “Thermoflour melting curve fluorescence of Notum” value (Notum [2]; compound 500 µM, Temperature 71.5) was 18396.4, the “Thermoflour melting curve fluorescence of Notum” value (Notum [2]; compound 500 µM, Temperature 72.5) was 18998.9 and the “Thermoflour melting curve fluorescence of Notum” value (Notum [2]; compound 500 µM, Temperature 73.5) was 19494.1. The “Thermoflour melting curve fluorescence of Notum” value (Notum [2]; compound 500 µM, Temperature 74.5) was 19890, the “Thermoflour melting curve fluorescence of Notum” value (Notum [2]; compound 500 µM, Temperature 75.5) was 20222.9 and the “Thermoflour melting curve fluorescence of Notum” value (Notum [2]; compound 500 µM, Temperature 76.5) was 20511.4. For the same molecule, the “Thermoflour melting curve fluorescence of Notum” value (Notum [2]; compound 500 µM, Temperature 77.5) was 20720.5, the “Thermoflour melting curve fluorescence of Notum” value (Notum [2]; compound 500 µM, Temperature 78.5) was 20881 and the “Thermoflour melting curve fluorescence of Notum” value (Notum [2]; compound 500 µM, Temperature 79.5) was 21035.4. The “Thermoflour melting curve fluorescence of Notum” value (Notum [2]; compound 500 µM, Temperature 80.5) was 21171.7, the “Thermoflour melting curve fluorescence of Notum” value (Notum [2]; compound 500 µM, Temperature 81.5) was 21266.6 and the “Thermoflour melting curve fluorescence of Notum” value (Notum [2]; compound 500 µM, Temperature 82.5) was 21332.1. For the same molecule, the “Thermoflour melting curve fluorescence of Notum” value (Notum [2]; compound 500 µM, Temperature 83.5) was 21375.7, the “Thermoflour melting curve fluorescence of Notum” value (Notum [2]; compound 500 µM, Temperature 84.5) was 21418.3 and the “Thermoflour melting curve fluorescence of Notum” value (Notum [2]; compound 500 µM, Temperature 85.5) was 21484.5. The “Thermoflour melting curve fluorescence of Notum” value (Notum [2]; compound 500 µM, Temperature 86.5) was 21557.9, the “Thermoflour melting curve fluorescence of Notum” value (Notum [2]; compound 500 µM, Temperature 87.5) was 21630 and the “Thermoflour melting curve fluorescence of Notum” value (Notum [2]; compound 500 µM, Temperature 88.5) was 21668.9. The “Thermoflour melting curve fluorescence of Notum” value (Notum [2]; compound 500 µM, Temperature 89.5) was 21631, the “Thermoflour melting curve fluorescence of Notum” value (Notum [2]; compound 500 µM, Temperature 90.5) was 21594.2 and the “Thermoflour melting curve fluorescence of Notum” value (Notum [2]; compound 500 µM, Temperature 91.5) was 21585.2. For the same molecule, the “Thermoflour melting curve fluorescence of Notum” value (Notum [2]; compound 500 µM, Temperature 92.5) was 21573.1, the “Thermoflour melting curve fluorescence of Notum” value (Notum [2]; compound 500 µM, Temperature 93.5) was 21559.5 and the “Thermoflour melting curve fluorescence of Notum” value (Notum [2]; compound 500 µM, Temperature 94.5) was 21527.2. For the same molecule, the “Thermoflour melting curve fluorescence of Notum” value (Notum [2]; compound 500 µM, Temperature 95.5) was 21485.4, the “Thermoflour melting curve fluorescence of Notum” value (Notum [2]; compound 500 µM, Temperature 96.5) was 21486.2 and the “Thermoflour melting curve fluorescence of Notum” value (Notum [2]; compound 500 µM, Temperature 97.5) was 21505.1. For the same molecule, the “∆Tm of Notum” value (Notum [2]; compound 500 µM, versus Notum without compounds) was 2.8 °C, the “SPR Response” value (Notum [3]; caffeine conc. 2.861e-8 (unit not given)) was 1.14 and the “SPR Response” value (Notum [3]; caffeine conc. 5.722e-8 (unit not given)) was 2.29. The “SPR Response” value (Notum [3]; caffeine conc. 1.144e-7 (unit not given)) was 3.61, the “SPR Response” value (Notum [3]; caffeine conc. 2.289e-7 (unit not given)) was 4.16 and the “SPR Response” value (Notum [3]; caffeine conc. 4.578e-7 (unit not given)) was 4.74. For the same molecule, the “SPR Response” value (Notum [3]; caffeine conc. 9.155e-7 (unit not given)) was 5.58, the “SPR Response” value (Notum [3]; caffeine conc. 1.831e-6 (unit not given)) was 6.88 and the “SPR Response” value (Notum [3]; caffeine conc. 3.662e-6 (unit not given)) was 9.64. The “SPR Response” value (Notum [3]; caffeine conc. 7.324e-6 (unit not given)) was 12.15, the “SPR Response” value (Notum [3]; caffeine conc. 1.465e-5 (unit not given)) was 16.8 and the “SPR Response” value (Notum [3]; caffeine conc. 2.93e-5 (unit not given)) was 23.59. The “SPR Response” value (Notum [3]; caffeine conc. 5.859e-5 (unit not given)) was 31.69, the “SPR Response” value (Notum [3]; caffeine conc. 0.0001172 (unit not given)) was 41.28 and the “SPR Response” value (Notum [3]; caffeine conc. 0.0002344 (unit not given)) was 50.77. For the same molecule, the “SPR Response” value (Notum [3]; caffeine conc. 0.0004687 (unit not given)) was 61.29, the “SPR Response” value (Notum [3]; caffeine conc. 0.0009375 (unit not given)) was 71.68 and the “SPR Response” value (Notum [3]; caffeine conc. 0.001875 (unit not given)) was 81.69. The “Concentration at which CNS stimulating effects are apparent” value (adenosine receptors) was 2.5 µM.

From PMC7544826 (Communications Biology, 2020)
